% of control, % binding and % of inhibition data for ten molecules are collected here from ChEMBL document CHEMBL5465560, “Selectivity Literature for EUbOPEN Chemogenomic Library” (2024).

In experiment [1] the target is Angiopoietin-1 receptor (Homo sapiens) (UniProt Q02763). Briefly: Selectivity interaction (Ambit KINOMEscan and KiNATiv profiling in Jurkat cells) EUB0000090b TEK. It counts as cell-based. The settings on record: at 1 µM.
Experiment [2] concerns the target cAMP-dependent protein kinase catalytic subunit alpha (Homo sapiens, UniProt P17612). Briefly: Selectivity interaction (Ambit KINOMEscan and KiNATiv profiling in Jurkat cells) EUB0000090b PRKACA. It counts as cell-based. The settings on record: at 1 µM.
For experiment [3], the target named is T1, Calcium/calmodulin-dependent protein kinase type IV (Homo sapiens) (UniProt Q16566).
T1 sequence (whole entry): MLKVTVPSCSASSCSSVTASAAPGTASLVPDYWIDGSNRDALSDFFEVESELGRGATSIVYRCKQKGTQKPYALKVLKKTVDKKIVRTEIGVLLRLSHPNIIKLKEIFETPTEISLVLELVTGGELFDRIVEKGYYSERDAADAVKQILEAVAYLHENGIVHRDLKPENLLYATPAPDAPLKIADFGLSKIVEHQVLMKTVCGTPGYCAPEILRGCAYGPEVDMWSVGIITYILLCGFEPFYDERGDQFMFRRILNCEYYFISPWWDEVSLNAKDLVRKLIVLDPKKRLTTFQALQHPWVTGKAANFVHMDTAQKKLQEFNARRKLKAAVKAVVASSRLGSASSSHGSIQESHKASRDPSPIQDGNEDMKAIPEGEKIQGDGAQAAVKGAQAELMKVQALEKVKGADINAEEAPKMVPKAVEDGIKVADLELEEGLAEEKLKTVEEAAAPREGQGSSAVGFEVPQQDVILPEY
The settings on record: at 10 µM.

For experiment [4], the target named is Calcium/calmodulin-dependent protein kinase type II subunit delta (Homo sapiens) (UniProt Q13557). Briefly: Selectivity interaction (KinomeScan (DiscoverX)) EUB0000666a CAMK2D. The settings on record: at 10 µM.
Sequence of Calcium/calmodulin-dependent protein kinase type II subunit delta (Homo sapiens) (Q13557 whole entry): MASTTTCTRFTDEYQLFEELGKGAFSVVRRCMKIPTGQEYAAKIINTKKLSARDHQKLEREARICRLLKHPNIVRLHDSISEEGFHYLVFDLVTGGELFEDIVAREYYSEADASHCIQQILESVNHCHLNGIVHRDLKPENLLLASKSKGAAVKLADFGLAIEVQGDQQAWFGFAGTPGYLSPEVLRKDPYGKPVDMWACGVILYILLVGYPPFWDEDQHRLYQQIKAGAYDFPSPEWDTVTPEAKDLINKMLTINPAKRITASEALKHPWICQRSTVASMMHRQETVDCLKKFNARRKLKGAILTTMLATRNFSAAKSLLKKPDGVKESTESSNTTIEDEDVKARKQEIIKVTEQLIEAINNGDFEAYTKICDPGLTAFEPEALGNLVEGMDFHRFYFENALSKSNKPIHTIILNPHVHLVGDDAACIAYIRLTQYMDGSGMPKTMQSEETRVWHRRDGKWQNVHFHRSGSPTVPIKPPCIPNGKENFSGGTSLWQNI
For experiment [5], the target named is T2, Interleukin-1 receptor-associated kinase 4 (Homo sapiens) (UniProt Q9NWZ3).
T2 sequence (whole entry): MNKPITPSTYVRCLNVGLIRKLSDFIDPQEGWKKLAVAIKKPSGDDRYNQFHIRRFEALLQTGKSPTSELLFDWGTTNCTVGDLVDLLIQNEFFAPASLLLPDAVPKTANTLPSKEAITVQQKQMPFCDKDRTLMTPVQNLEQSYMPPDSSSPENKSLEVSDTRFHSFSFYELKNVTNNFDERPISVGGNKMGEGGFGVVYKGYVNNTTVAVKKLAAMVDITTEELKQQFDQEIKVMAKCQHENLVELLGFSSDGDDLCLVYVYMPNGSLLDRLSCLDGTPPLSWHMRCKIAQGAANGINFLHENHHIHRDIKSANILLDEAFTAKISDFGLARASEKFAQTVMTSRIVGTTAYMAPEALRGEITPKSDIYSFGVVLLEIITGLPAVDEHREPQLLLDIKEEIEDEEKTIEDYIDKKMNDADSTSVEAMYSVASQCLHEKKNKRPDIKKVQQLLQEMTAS
The experiment is described as follows: Selectivity interaction (KinomeScan (DiscoverX)) EUB0000229b IRAK4. The settings on record: at 10 µM.

For experiment [6], the target named is Casein kinase I isoform alpha (Homo sapiens, UniProt P48729). The experiment is described as follows: Selectivity interaction (Kinase panel (literature)) EUB0001199aCl CSNK1A1. The settings on record: at 1 µM.
In experiment [7] the target is RAF proto-oncogene serine/threonine-protein kinase (Homo sapiens) (UniProt P04049). The experiment is described as follows: Selectivity interaction (Kinase panel (Invitrogen)) EUB0000639a RAF1. The settings on record: at 200 nM.
Sequence of RAF proto-oncogene serine/threonine-protein kinase (Homo sapiens) (P04049 whole entry): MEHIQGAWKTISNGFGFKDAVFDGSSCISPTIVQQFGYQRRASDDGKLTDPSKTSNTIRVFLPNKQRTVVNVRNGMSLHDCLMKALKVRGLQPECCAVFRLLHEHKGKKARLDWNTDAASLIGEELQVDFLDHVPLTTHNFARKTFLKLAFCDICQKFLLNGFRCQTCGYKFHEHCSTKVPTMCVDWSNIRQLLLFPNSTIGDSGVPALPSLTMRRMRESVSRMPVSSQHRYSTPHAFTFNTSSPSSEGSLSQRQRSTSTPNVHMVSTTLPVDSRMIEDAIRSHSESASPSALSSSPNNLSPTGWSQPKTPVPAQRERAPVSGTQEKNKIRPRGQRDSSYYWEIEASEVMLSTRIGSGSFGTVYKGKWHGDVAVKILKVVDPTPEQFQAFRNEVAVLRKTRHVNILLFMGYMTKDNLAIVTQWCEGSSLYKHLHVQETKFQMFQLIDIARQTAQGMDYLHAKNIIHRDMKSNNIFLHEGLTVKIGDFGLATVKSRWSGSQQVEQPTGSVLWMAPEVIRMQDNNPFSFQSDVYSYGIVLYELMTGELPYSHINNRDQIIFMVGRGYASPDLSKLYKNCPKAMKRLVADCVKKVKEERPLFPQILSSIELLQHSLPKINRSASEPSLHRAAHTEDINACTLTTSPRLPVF
Experiment [8] has as its target T3, Mitogen-activated protein kinase 12 (Homo sapiens) (UniProt P53778).
T3 sequence (whole entry): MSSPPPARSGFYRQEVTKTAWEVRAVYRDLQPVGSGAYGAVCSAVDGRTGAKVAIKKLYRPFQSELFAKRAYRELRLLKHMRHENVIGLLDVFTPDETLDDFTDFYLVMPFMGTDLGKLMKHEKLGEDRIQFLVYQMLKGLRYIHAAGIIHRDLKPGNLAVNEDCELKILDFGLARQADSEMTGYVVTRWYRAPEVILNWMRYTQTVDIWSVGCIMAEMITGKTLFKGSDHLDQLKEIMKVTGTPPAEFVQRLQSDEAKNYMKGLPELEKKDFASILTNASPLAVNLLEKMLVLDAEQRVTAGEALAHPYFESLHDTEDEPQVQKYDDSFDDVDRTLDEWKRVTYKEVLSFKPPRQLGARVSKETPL
The settings on record: at 10 µM.

Experiment [9] has as its target Mitogen-activated protein kinase 4 (Homo sapiens) (UniProt P31152). The settings on record: at 10 µM.
Experiment [10] deals with Fibroblast growth factor receptor 3 (Homo sapiens, UniProt P22607). The experiment is described as follows: Selectivity interaction (ProQinase) EUB0000171b FGFR3. The settings on record: at 1 µM.
Sequence of Fibroblast growth factor receptor 3 (P22607 23-806 limits assumed): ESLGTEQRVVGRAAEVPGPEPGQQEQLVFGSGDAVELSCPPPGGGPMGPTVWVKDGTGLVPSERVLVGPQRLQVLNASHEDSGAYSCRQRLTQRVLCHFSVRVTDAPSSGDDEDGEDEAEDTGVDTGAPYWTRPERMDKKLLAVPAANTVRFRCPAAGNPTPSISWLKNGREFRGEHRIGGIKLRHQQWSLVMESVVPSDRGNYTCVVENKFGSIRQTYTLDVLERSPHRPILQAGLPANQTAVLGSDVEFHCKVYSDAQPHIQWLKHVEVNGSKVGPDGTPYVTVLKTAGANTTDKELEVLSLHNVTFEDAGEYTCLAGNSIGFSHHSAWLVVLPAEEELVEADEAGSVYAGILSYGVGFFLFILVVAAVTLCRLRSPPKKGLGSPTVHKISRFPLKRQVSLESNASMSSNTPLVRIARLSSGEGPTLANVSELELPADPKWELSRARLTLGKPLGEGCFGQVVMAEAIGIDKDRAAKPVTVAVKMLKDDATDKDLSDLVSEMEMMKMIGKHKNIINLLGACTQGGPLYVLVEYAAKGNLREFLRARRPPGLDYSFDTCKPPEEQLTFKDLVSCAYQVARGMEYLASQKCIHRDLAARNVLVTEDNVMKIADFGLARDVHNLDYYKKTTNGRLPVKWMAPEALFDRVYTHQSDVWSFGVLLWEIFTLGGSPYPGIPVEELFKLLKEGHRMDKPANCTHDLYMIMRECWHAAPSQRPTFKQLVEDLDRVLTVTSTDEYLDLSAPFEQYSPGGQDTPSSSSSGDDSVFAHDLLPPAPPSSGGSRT
The target of experiment [11] is Interferon-induced, double-stranded RNA-activated protein kinase (Homo sapiens) (UniProt P19525). The experiment is described as follows: Selectivity interaction (KinomeScan (DiscoverX)) EUB0000092b EIF2AK2. The settings on record: at 10 µM.
Sequence of Interferon-induced, double-stranded RNA-activated protein kinase (Homo sapiens) (P19525 whole entry): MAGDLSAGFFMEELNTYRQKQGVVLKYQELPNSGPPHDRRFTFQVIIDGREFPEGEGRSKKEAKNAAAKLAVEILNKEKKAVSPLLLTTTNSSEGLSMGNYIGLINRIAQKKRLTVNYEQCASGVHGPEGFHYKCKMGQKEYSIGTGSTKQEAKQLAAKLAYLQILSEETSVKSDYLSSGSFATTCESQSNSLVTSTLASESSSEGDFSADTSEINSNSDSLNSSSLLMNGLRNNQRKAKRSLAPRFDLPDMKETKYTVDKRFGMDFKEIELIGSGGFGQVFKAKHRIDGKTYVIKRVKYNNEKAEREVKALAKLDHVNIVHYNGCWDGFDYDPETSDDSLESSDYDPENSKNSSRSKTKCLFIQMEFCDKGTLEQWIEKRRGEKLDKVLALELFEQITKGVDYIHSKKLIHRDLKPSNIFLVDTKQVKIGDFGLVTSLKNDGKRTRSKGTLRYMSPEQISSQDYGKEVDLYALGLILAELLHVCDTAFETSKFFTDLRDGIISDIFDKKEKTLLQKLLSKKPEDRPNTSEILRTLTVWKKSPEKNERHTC
The target of experiment [12] is Serine/threonine-protein kinase Nek4 (Homo sapiens) (UniProt P51957). The experiment is described as follows: Selectivity interaction (KinomeScan (DiscoverX)) EUB0000618a NEK4. The settings on record: at 10 µM.
Sequence of Serine/threonine-protein kinase Nek4 (Homo sapiens) (P51957 whole entry, looked up): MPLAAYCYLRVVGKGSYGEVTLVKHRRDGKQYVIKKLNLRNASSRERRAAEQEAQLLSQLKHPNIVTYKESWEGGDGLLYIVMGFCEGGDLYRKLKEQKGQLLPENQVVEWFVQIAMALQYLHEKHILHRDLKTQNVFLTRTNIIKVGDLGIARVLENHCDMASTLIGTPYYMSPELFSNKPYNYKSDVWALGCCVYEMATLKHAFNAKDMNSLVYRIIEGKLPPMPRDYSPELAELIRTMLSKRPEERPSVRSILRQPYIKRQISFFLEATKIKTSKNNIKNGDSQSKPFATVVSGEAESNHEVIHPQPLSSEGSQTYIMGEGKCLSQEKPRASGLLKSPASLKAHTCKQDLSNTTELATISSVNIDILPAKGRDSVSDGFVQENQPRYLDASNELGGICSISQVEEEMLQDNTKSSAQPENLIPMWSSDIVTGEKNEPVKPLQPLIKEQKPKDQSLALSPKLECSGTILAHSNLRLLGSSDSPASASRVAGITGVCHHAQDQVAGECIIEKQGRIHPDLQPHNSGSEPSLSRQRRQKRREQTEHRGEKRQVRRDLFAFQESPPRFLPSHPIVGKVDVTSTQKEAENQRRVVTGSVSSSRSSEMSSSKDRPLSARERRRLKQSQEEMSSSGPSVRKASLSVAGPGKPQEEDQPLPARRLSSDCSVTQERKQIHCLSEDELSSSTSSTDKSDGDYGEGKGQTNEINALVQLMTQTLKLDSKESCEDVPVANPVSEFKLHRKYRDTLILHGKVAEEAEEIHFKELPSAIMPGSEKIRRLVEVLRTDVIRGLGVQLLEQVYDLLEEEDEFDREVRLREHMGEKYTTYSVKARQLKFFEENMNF

Sequence of Angiopoietin-1 receptor (Homo sapiens) (Q02763 whole entry): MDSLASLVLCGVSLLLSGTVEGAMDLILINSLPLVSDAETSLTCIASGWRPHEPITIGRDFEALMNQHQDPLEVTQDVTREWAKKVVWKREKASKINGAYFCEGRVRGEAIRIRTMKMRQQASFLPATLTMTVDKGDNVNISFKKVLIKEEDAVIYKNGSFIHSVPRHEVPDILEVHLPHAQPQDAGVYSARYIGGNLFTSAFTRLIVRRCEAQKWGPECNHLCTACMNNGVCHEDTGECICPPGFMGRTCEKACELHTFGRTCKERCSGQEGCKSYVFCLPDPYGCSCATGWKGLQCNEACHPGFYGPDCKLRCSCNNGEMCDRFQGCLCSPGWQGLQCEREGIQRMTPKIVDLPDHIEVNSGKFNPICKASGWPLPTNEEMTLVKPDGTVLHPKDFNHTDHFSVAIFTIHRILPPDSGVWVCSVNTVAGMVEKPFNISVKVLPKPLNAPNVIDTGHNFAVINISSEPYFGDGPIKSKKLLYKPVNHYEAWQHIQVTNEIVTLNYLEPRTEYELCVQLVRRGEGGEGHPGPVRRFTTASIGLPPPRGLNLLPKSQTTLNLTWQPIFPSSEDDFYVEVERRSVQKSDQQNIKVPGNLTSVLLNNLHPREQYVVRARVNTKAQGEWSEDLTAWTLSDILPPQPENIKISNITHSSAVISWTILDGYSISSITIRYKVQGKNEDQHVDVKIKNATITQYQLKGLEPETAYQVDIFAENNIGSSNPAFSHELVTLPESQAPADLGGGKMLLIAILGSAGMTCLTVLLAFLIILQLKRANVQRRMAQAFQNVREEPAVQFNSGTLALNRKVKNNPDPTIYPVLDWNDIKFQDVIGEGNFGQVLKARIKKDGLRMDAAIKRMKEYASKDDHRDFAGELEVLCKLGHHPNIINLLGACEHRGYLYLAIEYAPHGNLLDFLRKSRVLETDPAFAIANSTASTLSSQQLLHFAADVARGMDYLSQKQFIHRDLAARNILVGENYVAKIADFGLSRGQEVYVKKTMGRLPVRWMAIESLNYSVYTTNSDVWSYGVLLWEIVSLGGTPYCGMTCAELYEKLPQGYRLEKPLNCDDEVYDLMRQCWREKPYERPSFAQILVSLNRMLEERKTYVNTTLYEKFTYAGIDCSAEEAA
Sequence of Mitogen-activated protein kinase 4 (Homo sapiens) (P31152 whole entry): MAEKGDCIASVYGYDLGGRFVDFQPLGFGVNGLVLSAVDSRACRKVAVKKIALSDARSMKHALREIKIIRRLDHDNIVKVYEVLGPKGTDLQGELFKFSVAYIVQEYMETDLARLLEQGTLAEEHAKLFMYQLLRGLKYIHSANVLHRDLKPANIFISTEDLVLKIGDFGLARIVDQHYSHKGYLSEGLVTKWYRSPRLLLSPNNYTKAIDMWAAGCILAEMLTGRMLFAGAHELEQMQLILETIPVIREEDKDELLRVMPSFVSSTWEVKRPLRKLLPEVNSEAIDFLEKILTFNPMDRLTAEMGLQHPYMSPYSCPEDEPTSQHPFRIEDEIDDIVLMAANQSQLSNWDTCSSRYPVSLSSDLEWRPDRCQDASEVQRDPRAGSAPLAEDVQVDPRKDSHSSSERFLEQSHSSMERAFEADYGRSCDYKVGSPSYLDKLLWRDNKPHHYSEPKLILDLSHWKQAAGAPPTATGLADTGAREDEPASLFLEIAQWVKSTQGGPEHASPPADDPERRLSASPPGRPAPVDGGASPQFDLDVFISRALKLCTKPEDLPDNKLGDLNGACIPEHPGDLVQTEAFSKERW

Take `CN(C)C/C=C/C(=O)Nc1ccc(C(=O)N2CCCC(Nc3ncc(Cl)c(-c4c[nH]c5ccccc45)n3)C2)cc1` (configuration not stated): the figures for the % of control in experiment [1] and in [2] were 92% and 100%, respectively.
`Cc1cc([C@@H](C)Nc2ccccc2C(=O)O)c2nc(N3CCOCC3)cc(=O)n2c1` [AZD-6482]: the % of control in [3] came out at 100%.
In the case of `O=C(NOC[C@H](O)CO)c1ccc(F)c(F)c1Nc1ccc(I)cc1F`, the % of control in experiment [4] was determined as 100%.
`COc1cc(N(C)c2ccnc3ccc(C(F)(F)F)cc23)cc(OC)c1OC` yielded a % binding in experiment [5] of 85%.
With `CN1Cc2nccc(-c3cn(C)nc3-c3ccc(F)cc3)c2C1=O`, the % of inhibition in experiment [6] was 51%.
As to `CC[C@@H]1[C@H](F)C(=O)N[C@@H]1COc1nccc2cc(C(N)=O)c(OC)cc12` [ZIMLOVISERTIB], the % of inhibition in [7] was found to be 15.9%.
For the molecule `CCN(CC)CCCCNc1ncc2cc(-c3cc(OC)cc(OC)c3)c(NC(=O)NC(C)(C)C)nc2n1`, the % of control in [8] and in experiment [9] was 100% in each case.
On to `C=CC(=O)Nc1cccc(C(=O)Nc2ccc(Nc3cc(-c4[nH]c(SC)nc4C)ccn3)cc2)c1`, for which the % of control in experiment [10] came to 88%.
As for `CCC(=O)N1CCN(c2ccc(-n3c(=O)ccc4cnc5ccc(-c6cnc7ccccc7c6)cc5c43)cc2C(F)(F)F)CC1`, the % of control in [11] was determined as 88%.
On to `O[C@H]1CC[C@H](Nc2ncc3nc(Nc4c(F)cc(F)cc4F)n([C@H]4CCOC4)c3n2)CC1`, for which, in experiment [12], the % of control was determined as 100%.
